These are literature values, as cited in US20070292421A1, “Method for treating preeclampsia” (priority 2005, published 2007).

For one data set, the system named is severe sepsis. To be noted: OPTIMIST trial.
Data set [1] relates to antineutrophil cytoplasmic antibody (ANCA) positive patients.
In data set [2] the target is serotonin 5-HT2A receptor (Homo sapiens, UniProt P28223).
The subject of data set [3] is 5-HT2C, 5-HT2B, 5-HT1D, alpha-adrenergic, and dopamine receptors. Conditions: relative to 5-HT2A.
A further data set concerns trophoblast apoptosis. To be noted: in vitro.
In a further data set the test system is human C5a receptor. To be noted: numerous models of human disease.

serotonin 5-HT2A receptor, sequence (P28223 whole entry): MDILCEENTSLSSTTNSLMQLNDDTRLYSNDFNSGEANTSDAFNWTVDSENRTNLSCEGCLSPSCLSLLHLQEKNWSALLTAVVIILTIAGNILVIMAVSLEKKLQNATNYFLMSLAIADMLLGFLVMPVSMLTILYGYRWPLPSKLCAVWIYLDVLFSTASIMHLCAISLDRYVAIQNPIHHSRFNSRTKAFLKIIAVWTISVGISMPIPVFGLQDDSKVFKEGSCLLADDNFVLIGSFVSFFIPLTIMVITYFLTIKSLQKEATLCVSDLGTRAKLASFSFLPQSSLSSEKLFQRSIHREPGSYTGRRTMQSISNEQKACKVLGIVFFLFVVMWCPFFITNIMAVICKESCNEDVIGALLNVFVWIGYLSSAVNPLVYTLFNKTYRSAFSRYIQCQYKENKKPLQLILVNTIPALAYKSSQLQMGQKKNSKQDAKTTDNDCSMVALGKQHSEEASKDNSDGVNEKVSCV

For “tifacogin: recombinant TFPI (Chiron Corp/Pharmacia Corp)”, the “treatment of severe sepsis” value with severe sepsis is “failure”.
As to “Rituximab: monoclonal antibody that binds the B cell surface protein CD20 (Roche Pharmaceuticals)”, in data set [1] (n=11 patients combined, added to immunosuppressive drug regimen), the clinical improvement result was “clinical improvement in all eleven cases”. Further, the “cases with complete clinical improvement” value in data set [1] (of eleven cases) is “eight”.
As to `O=C(c1ccc(F)cc1)C1CCN(CCn2c(=O)[nH]c3ccccc3c2=O)CC1` [Ketanserin], in data set [2], the affinity entry is “high affinity”. For the same compound, the binding result in data set [3] is “binds less potently”.
On to heparin, for which the “effect on trophoblast apoptosis” value with trophoblast apoptosis is listed as “regulate trophoblast apoptosis”.
Consider “Ac-Phe [3D53, Ac-Phe [Orn-Pro-D-Cha-Trp-Arg]]”, for which the anti-inflammatory activity entry with human C5a receptor is reported as “excellent anti-inflammatory activity”.
As for `CC(=O)Oc1ccccc1C(=O)O` [aspirin], in the data set on trophoblast apoptosis, the “effect on trophoblast apoptosis” value is given as “regulate trophoblast apoptosis”.
